Measurements reported in the NIST ThermoML archive (doi:10.1016/j.tca.2009.06.015).

Columns and labels:
[1] = refractive index (Na D-line) (dimensionless); xn = mol fraction of the nth substance listed; settings: 101 kPa, Liquid, Standard Abbe refractometry
[2] = xn = mol fraction of the nth substance listed; settings: 101 kPa, Liquid; for viscosity: Capillary tube (Ostwald / Ubbelohde) method; for mass density: Vibrating tube method

CCCCCC(C)O (stereo not drawn) [2-heptanol] + CC#N
Settings | mass density, [2] [kg/m3] | refractive index, [1] | viscosity, [2] [mPa·s]
293.15 K, x2 = 0 | 817.18 | 1.4206 | 6.52
293.15 K, x2 = 0.1142 | 814.97 | 1.417 | 4.326
293.15 K, x2 = 0.1947 | 813.16 | 1.4145 | 3.337
293.15 K, x2 = 0.251 | 811.78 | 1.4124 | 2.77
293.15 K, x2 = 0.3491 | 809.24 | 1.4094 | 2.133
293.15 K, x2 = 0.4525 | 806.32 | 1.4042 | 1.584
293.15 K, x2 = 0.5436 | 803.52 | 1.3986 | 1.239
293.15 K, x2 = 0.6702 | 798.9 | 1.3881 | 0.8636
293.15 K, x2 = 0.7574 | 795.18 | 1.3793 | 0.6732
293.15 K, x2 = 0.877 | 789.27 | 1.3637 | –
293.15 K, x2 = 0.9588 | 784.77 | 1.3516 | 0.3857
298.15 K, x2 = 0 | 813.33 | 1.4188 | 5.33
298.15 K, x2 = 0.1142 | 811.07 | 1.4158 | 3.583
298.15 K, x2 = 0.1947 | 809.19 | 1.4146 | 2.821
298.15 K, x2 = 0.251 | 807.74 | 1.4129 | 2.402
298.15 K, x2 = 0.3491 | 805 | 1.4094 | 1.853
298.15 K, x2 = 0.4525 | 802.07 | 1.4039 | 1.395
298.15 K, x2 = 0.5436 | 799.12 | 1.3979 | 1.106
298.15 K, x2 = 0.6702 | 794.43 | 1.3873 | 0.7855
298.15 K, x2 = 0.7574 | 790.57 | 1.3781 | 0.6191
298.15 K, x2 = 0.877 | 784.26 | 1.3629 | –
298.15 K, x2 = 0.9588 | 779.64 | 1.3503 | 0.3652
303.15 K, x2 = 0 | 809.44 | 1.4165 | 4.301
303.15 K, x2 = 0.1142 | 807.06 | 1.4154 | 3.03
303.15 K, x2 = 0.1947 | 805.14 | 1.4147 | 2.409
303.15 K, x2 = 0.251 | 803.62 | 1.4135 | 2.066
303.15 K, x2 = 0.3491 | 800.93 | 1.4093 | 1.619
303.15 K, x2 = 0.4525 | 797.79 | 1.4029 | 1.251
303.15 K, x2 = 0.5436 | 794.69 | 1.3973 | 0.9893
303.15 K, x2 = 0.6702 | 789.88 | 1.3863 | 0.7174
303.15 K, x2 = 0.7574 | 786 | 1.3774 | 0.5762
303.15 K, x2 = 0.877 | 779.5 | 1.362 | –
303.15 K, x2 = 0.9588 | 774.36 | 1.3481 | 0.3483
308.15 K, x2 = 0 | 805.5 | 1.4143 | 3.528
308.15 K, x2 = 0.1142 | 803.17 | 1.4139 | 2.578
308.15 K, x2 = 0.1947 | 801.12 | 1.413 | 2.072
308.15 K, x2 = 0.251 | 799.49 | 1.4116 | 1.816
308.15 K, x2 = 0.3491 | 796.53 | 1.4079 | 1.466
308.15 K, x2 = 0.4525 | 793.31 | 1.4022 | 1.112
308.15 K, x2 = 0.5436 | 790.11 | 1.3958 | 0.8985
308.15 K, x2 = 0.6702 | 785.23 | 1.3845 | 0.6625
308.15 K, x2 = 0.7574 | 781.16 | 1.3744 | 0.539
308.15 K, x2 = 0.877 | 774.15 | 1.3576 | 0.4454
308.15 K, x2 = 0.9588 | 768.93 | 1.3452 | 0.3326

CCCCC(C)O (stereo not drawn) [2-hexanol] + CC#N
Settings | mass density, [2] [kg/m3] | refractive index, [1] | viscosity, [2] [mPa·s]
293.15 K, x2 = 0 | 814.08 | 1.4135 | 5.155
293.15 K, x2 = 0.0964 | 812.14 | 1.4103 | 3.491
293.15 K, x2 = 0.1813 | 810.22 | 1.4077 | 2.696
293.15 K, x2 = 0.2574 | 808.34 | 1.4051 | 2.128
293.15 K, x2 = 0.3436 | 806.07 | 1.4014 | 1.684
293.15 K, x2 = 0.4483 | 803.11 | 1.3972 | 1.276
293.15 K, x2 = 0.5398 | 800.33 | 1.3917 | 1.006
293.15 K, x2 = 0.6495 | 796.76 | 1.3837 | 0.7676
293.15 K, x2 = 0.758 | 792.88 | 1.3739 | 0.582
293.15 K, x2 = 0.8733 | 788.19 | 1.3621 | 0.4444
293.15 K, x2 = 0.9579 | 784.29 | 1.351 | 0.3758
298.15 K, x2 = 0 | 810.14 | 1.4116 | 4.1
298.15 K, x2 = 0.0964 | 808.14 | 1.4096 | 2.933
298.15 K, x2 = 0.1813 | 806.14 | 1.4078 | 2.284
298.15 K, x2 = 0.2574 | 804.19 | 1.4054 | 1.84
298.15 K, x2 = 0.3436 | 801.82 | 1.4022 | 1.475
298.15 K, x2 = 0.4483 | 798.72 | 1.3975 | 1.133
298.15 K, x2 = 0.5398 | 795.82 | 1.3924 | 0.9062
298.15 K, x2 = 0.6495 | 792.09 | 1.3837 | 0.6995
298.15 K, x2 = 0.758 | 788.02 | 1.373 | 0.5384
298.15 K, x2 = 0.8733 | 783.08 | 1.3595 | 0.4184
298.15 K, x2 = 0.9579 | 779.02 | 1.348 | 0.3583
303.15 K, x2 = 0 | 806.13 | 1.4093 | 3.41
303.15 K, x2 = 0.0964 | 804.04 | 1.4082 | 2.491
303.15 K, x2 = 0.1813 | 801.94 | 1.4064 | 1.967
303.15 K, x2 = 0.2574 | 799.91 | 1.4044 | 1.61
303.15 K, x2 = 0.3436 | 797.49 | 1.4021 | 1.301
303.15 K, x2 = 0.4483 | 794.38 | 1.3979 | 1.017
303.15 K, x2 = 0.5398 | 791.33 | 1.3925 | 0.8212
303.15 K, x2 = 0.6495 | 787.45 | 1.3839 | 0.6409
303.15 K, x2 = 0.758 | 783.07 | 1.374 | 0.5036
303.15 K, x2 = 0.8733 | 777.74 | 1.3596 | 0.3943
303.15 K, x2 = 0.9579 | 773.37 | 1.345 | 0.3411
308.15 K, x2 = 0 | 802.06 | 1.4077 | 2.819
308.15 K, x2 = 0.0964 | 799.97 | 1.4069 | 2.134
308.15 K, x2 = 0.1813 | 797.84 | 1.4061 | 1.708
308.15 K, x2 = 0.2574 | 795.74 | 1.4049 | 1.42
308.15 K, x2 = 0.3436 | 793.18 | 1.4026 | 1.155
308.15 K, x2 = 0.4483 | 789.88 | 1.3979 | 0.9154
308.15 K, x2 = 0.5398 | 786.73 | 1.3925 | 0.7511
308.15 K, x2 = 0.6495 | 782.83 | 1.3844 | 0.5933
308.15 K, x2 = 0.758 | 778.36 | 1.3745 | 0.4724
308.15 K, x2 = 0.8733 | 772.84 | 1.361 | 0.3759
308.15 K, x2 = 0.9579 | 768.23 | 1.3469 | 0.3263

CC#N [acetonitrile] + CC(C)O
Settings | mass density, [2] [kg/m3] | refractive index, [1] | viscosity, [2] [mPa·s]
293.15 K, x1 = 0.0496 | 784.97 | 1.3757 | 1.972
293.15 K, x1 = 0.0906 | 784.72 | 1.3751 | 1.688
293.15 K, x1 = 0.1529 | 784.31 | 1.3737 | 1.368
293.15 K, x1 = 0.2022 | 783.9 | 1.3726 | 1.176
293.15 K, x1 = 0.2783 | 783.36 | 1.3705 | 0.9608
293.15 K, x1 = 0.3678 | 782.71 | 1.3677 | 0.7912
293.15 K, x1 = 0.4768 | 782.02 | 1.364 | 0.6502
293.15 K, x1 = 0.6132 | 781.53 | 1.359 | 0.51
293.15 K, x1 = 0.7714 | 781.13 | 1.3528 | 0.4156
293.15 K, x1 = 0.9207 | 781.26 | 1.3469 | 0.3716
293.15 K, x1 = 1 | 782.04 | 1.3436 | 0.3542
298.15 K, x1 = 0.0496 | 780.76 | 1.3733 | 1.691
298.15 K, x1 = 0.0906 | 780.3 | 1.3724 | 1.461
298.15 K, x1 = 0.1529 | 779.7 | 1.3713 | 1.207
298.15 K, x1 = 0.2022 | 779.7 | 1.3702 | 1.044
298.15 K, x1 = 0.2783 | 779.2 | 1.3687 | 0.8677
298.15 K, x1 = 0.3678 | 777.65 | 1.3667 | 0.7248
298.15 K, x1 = 0.4768 | 778.79 | 1.3635 | 0.6062
298.15 K, x1 = 0.6132 | 776.2 | 1.3591 | 0.4735
298.15 K, x1 = 0.7714 | 775.79 | 1.3528 | 0.384
298.15 K, x1 = 0.9207 | 775.95 | 1.3452 | 0.3499
298.15 K, x1 = 1 | 776.64 | 1.3411 | 0.3369
303.15 K, x1 = 0.0496 | 776.32 | 1.3715 | 1.474
303.15 K, x1 = 0.0906 | 775.84 | 1.3707 | 1.288
303.15 K, x1 = 0.1529 | 775.13 | 1.3694 | 1.069
303.15 K, x1 = 0.2022 | 774.54 | 1.3684 | 0.9367
303.15 K, x1 = 0.2783 | 773.97 | 1.3666 | 0.7975
303.15 K, x1 = 0.3678 | 772.88 | 1.3641 | 0.6615
303.15 K, x1 = 0.4768 | 771.84 | 1.3608 | 0.5492
303.15 K, x1 = 0.6132 | 771.13 | 1.3561 | 0.4429
303.15 K, x1 = 0.7714 | 770.52 | 1.35 | 0.3617
303.15 K, x1 = 0.9207 | 770.59 | 1.3433 | 0.3311
303.15 K, x1 = 1 | 771.21 | 1.339 | 0.3254
308.15 K, x1 = 0.0496 | 771.86 | 1.3694 | 1.296
308.15 K, x1 = 0.0906 | 771.31 | 1.3687 | 1.15
308.15 K, x1 = 0.1529 | 770.57 | 1.3679 | 0.9576
308.15 K, x1 = 0.2022 | 769.92 | 1.367 | 0.846
308.15 K, x1 = 0.2783 | 768.98 | 1.3657 | 0.7168
308.15 K, x1 = 0.3678 | 767.8 | 1.3637 | 0.6057
308.15 K, x1 = 0.4768 | 766.44 | 1.3605 | 0.5051
308.15 K, x1 = 0.6132 | 765.75 | 1.3557 | 0.4111
308.15 K, x1 = 0.7714 | 765.26 | 1.3491 | 0.3442
308.15 K, x1 = 0.9207 | 765.18 | 1.3417 | 0.3202
308.15 K, x1 = 1 | 765.75 | 1.3371 | 0.3082
